Drawing on US9365613B2, “Acylated 4-amidino- and -4-guanidinobenzylamines for inhibition of plasma kallikrein” (The Medicines Company (Leipzig) GmbH, priority 2003, dated 2016), this text covers Ki for 23 compounds.

For one test, the target named is PK (Homo sapiens, UniProt P03952). The following applies: read-out: Ki PK (literature); cited from earlier work.
The next test addresses T1, human factor XIa (Homo sapiens, UniProt P03951).
T1 construct: purchased Haemochrom Diagnostica GmbH, Essen, Germany
Briefly: Inhibitory constants for factor XIa (substrate H-D-Lys(Z)-Pro-Arg-pNA, Chromozym PCa). It counts as biochemical. The following applies: read-out: Ki F XIa. On the procedure: (§1) The inhibitory effect for the individual enzymes was determined in analogy with a method which has already been described (Stürzebecher et al., J. Med. Chem. 40, 3091-3099, 1997).
(§2) After 3 min, the reaction was terminated by adding 25 μl of acetic acid (50%) and the absorption at […] was determined using a Microplate Reader (Labsystems iEMS Reader MF). The Ki values were determined, in accordance with Dixon (Biochem. J. 55, 170-171, 1953), by means of linear regression and using a computer program. The Ki values are the mean of at least three determinations.
(§3) The inhibition of factor XIa and factor XIIa was determined in an analogous manner. When determining the inhibitory constants for human factor XIa (Haemochrom Diagnostica GmbH, Essen, Germany), H-D-Lys(Z)-Pro-Arg-pNA (Chromozym PCa, Roche Diagnostics GmbH, Mannheim, Germany) was used as the substrate.

The target of a further test is T2, human factor XIIa (Homo sapiens, UniProt P00748).
T2 construct: purchased Haemochrom Diagnostica GmbH, Essen, Germany
Put plainly: Inhibitory constants for factor XIIa (substrate H-D-HHT-Gly-Arg-pNA, Chromozym XII). It counts as biochemical. The following applies: read-out: Ki F XIIa. The procedure: as §1, §2, §3
H-D-HHT-Gly-Arg-pNA (Chromozym XII, Roche Diagnostics GmbH, Mannheim, Germany) was used as the substrate for measuring the inhibitory constants of human factor XIIa (Haemochrom Diagnostica GmbH, Essen, Germany).

A further test deals with thrombin (UniProt P00735). Put plainly: Inhibitory constants for thrombin. The following applies: read-out: Ki Thrombin. It counts as biochemical.
Another test addresses plasma kallikrein (PK) (Homo sapiens, UniProt P03952). Put plainly: Determining the inhibitory constants: inhibition of PK (substrate Bzl-Pro-Phe-Arg-pNA). It counts as biochemical. The following applies: Tris buffer pH 8.0, 25° C.; mean of at least three determinations. The procedure:
as §1, §2

T2 sequence (P00748 373-615 limits assumed, other chains not shown): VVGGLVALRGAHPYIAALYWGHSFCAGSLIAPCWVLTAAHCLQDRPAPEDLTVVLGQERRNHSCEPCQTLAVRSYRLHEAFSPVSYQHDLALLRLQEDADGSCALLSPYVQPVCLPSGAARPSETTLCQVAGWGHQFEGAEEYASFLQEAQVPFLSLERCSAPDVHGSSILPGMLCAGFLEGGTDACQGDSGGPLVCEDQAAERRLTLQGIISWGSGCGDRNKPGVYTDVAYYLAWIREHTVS
T1 sequence (P03951 388-625 limits assumed): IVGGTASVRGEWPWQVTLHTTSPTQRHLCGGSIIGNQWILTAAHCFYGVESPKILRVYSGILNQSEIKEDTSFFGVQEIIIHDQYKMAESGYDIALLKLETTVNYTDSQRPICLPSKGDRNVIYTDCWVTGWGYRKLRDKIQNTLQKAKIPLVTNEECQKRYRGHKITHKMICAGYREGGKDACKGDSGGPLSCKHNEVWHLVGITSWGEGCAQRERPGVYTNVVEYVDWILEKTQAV
T1 sequence (P03951 19-387 partner limits assumed): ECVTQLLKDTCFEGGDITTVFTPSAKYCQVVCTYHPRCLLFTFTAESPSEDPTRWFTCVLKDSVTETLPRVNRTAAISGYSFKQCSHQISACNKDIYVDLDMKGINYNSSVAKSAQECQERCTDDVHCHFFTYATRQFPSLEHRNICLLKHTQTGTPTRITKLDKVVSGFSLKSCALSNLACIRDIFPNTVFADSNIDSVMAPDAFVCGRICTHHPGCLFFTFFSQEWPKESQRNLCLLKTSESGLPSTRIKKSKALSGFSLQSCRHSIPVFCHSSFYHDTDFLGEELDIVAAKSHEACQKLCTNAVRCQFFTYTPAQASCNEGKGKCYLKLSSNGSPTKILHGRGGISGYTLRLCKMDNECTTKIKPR
Chain of plasma kallikrein (PK) (P03952 391-638 limits assumed, species assumed): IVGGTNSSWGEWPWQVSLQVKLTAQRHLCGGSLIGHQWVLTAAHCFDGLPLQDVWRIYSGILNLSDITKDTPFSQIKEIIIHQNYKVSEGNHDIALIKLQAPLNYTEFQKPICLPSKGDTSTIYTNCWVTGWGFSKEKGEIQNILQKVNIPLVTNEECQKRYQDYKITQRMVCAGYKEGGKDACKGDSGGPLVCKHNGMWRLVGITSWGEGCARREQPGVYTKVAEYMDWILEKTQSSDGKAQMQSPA
Chain of plasma kallikrein (PK) (P03952 20-390 partner limits assumed, species assumed): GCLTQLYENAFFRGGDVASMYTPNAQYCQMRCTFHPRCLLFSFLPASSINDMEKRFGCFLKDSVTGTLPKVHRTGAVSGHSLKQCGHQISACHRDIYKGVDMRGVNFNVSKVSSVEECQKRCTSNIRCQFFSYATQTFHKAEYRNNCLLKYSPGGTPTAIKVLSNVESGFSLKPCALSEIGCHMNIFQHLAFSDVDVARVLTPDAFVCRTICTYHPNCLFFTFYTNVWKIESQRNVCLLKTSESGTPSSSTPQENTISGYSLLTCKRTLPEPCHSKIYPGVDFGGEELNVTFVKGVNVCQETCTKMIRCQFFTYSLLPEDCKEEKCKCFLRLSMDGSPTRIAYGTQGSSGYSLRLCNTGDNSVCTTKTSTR
Chain of PK (P03952 391-638 limits assumed): as the sequence (P03952 391-638 limits assumed, species assumed) above
Chain of PK (P03952 20-390 partner limits assumed): as the sequence (P03952 20-390 partner limits assumed, species assumed) above

Consider `CC(C)(C)C(NC(=O)OC12CC3CC(CC(C3)C1)C2)C(=O)NC(Cc1ccccc1)C(=O)NC(CCCNC(=N)N)C(=O)C(F)(F)F` [adamantyloxycarbonyl-D-tert-butylglycine-Phe-Arg-CF3], for which the Ki at PK is 2 nM.
Consider `COC(=O)c1ccc(CS(=O)(=O)N[C@H](COC(C)(C)C)C(=O)N[C@@H](C)C(=O)NCc2ccc(C(=N)N)cc2)cc1` [Inhibitor 49], for which the Ki on human factor XIa turned out to be 79 nM; on human factor XIIa, 4.7 µM; on thrombin it was 4.3 nM; on plasma kallikrein (PK), 54 nM.
The corresponding values for `C[C@@H](OCc1ccccc1)[C@H](NC(=O)[C@@H](COC(C)(C)C)NS(=O)(=O)Cc1ccccc1)C(=O)NCc1ccc(C(=N)N)cc1` [Inhibitor 39] are 400 nM, 17 µM, 19 nM and 44 nM.
The like results for `N=C(N)c1ccc(CNC(=O)CNC(=O)[C@@H](CC2CCCCC2)NS(=O)(=O)Cc2ccccc2)cc1` [Inhibitor 63] were, in that order, 25000 nM, 0.7 µM, 9 nM and 11 nM.
On to `N=C(N)NCCCC(C=O)NC(=O)C(Cc1ccccc1)NC(=O)C(Cc1ccccc1)NC(=O)OC12CC3CC(CC(C3)C1)C2` [adamantyloxycarbonyl-D-Phe-Phe-arginal], for which the inhibitory constant (Ki) on PK is 12 nM.
As for `N=C(N)c1ccc(CNC(=O)[C@H](CCCCNC(=O)COCC(=O)NCCOCCOCCOCCOCCOCCOCCOCCN)NC(=O)[C@@H](CC2CCCCC2)NS(=O)(=O)Cc2ccccc2)cc1` [Inhibitor 58], the Ki worked out at 230 nM at human factor XIa, 2 µM at human factor XIIa, 8 nM on thrombin and 59 nM on plasma kallikrein (PK).
For the compound `CC(C)(C)OC[C@@H](NS(=O)(=O)Cc1ccccc1)C(=O)NCC(=O)NCc1ccc(C(=N)N)cc1` [Inhibitor 26], the Ki worked out at 1400 nM on human factor XIa, 2.6 µM on human factor XIIa, 220 nM at thrombin and 340 nM at plasma kallikrein (PK).
Consider `CC(=O)N[C@H](Cc1ccccc1)C(=O)N1CCC[C@H]1C(=O)N[C@@H](CCCN=C(N)N)B(O)O` [DuP 714, Ac-D-Phe-Pro-boroarginine], for which the Ki at PK was 1.6 nM.
For `N=C(N)c1ccc(CNC(=O)[C@@H]2CCCN2C(=O)[C@@H](CC2CCCCC2)NS(=O)(=O)Cc2cccc(CN)c2)cc1` [Inhibitor 55], the Ki stood at 170 nM at human factor XIa, 0.47 µM at human factor XIIa, 3.2 nM on thrombin and 90 nM on plasma kallikrein (PK).
The corresponding values for `C[C@H](NC(=O)[C@@H](COC(C)(C)C)NS(=O)(=O)Cc1ccccc1)C(=O)NCc1ccc(C(=N)N)cc1` [Inhibitor 27] are 30 nM, 2 µM, 2.1 nM and 61 nM.
The like results for `N=C(N)c1ccc(CNC(=O)[C@H](COCc2ccccc2)NC(=O)[C@@H](CO)NS(=O)(=O)Cc2ccccc2)cc1` [Inhibitor 16] were, in that order, 300 nM, 9.8 µM, 480 nM and 25 nM.
The corresponding values for `CC(C)(C)OC[C@@H](NS(=O)(=O)Cc1ccccc1)C(=O)N[C@@H](Cc1ccccc1)C(=O)NCc1ccc(C(=N)N)cc1` [Inhibitor 44] are 260 nM, 4.6 µM, 160 nM and 5.5 nM.
For the compound `COC(=O)c1ccc(CS(=O)(=O)N[C@H](CO)C(=O)NCC(=O)NCc2ccc(C(=N)N)cc2)cc1` [Inhibitor 21], the inhibition constant (Ki) on human factor XIa came to 8100 nM; at human factor XIIa, 42 µM; at thrombin, 9400 nM; at plasma kallikrein (PK), 4200 nM.
The like results for `COC(=O)c1ccc(CS(=O)(=O)N[C@H](COC(C)(C)C)C(=O)NCC(=O)NCc2ccc(C(=N)N)cc2)cc1` [Inhibitor 47] were, in that order, 1600 nM, 4.8 µM, 360 nM and 1100 nM.
The like results for `N=C(N)c1ccc(CNC(=O)CNC(=O)[C@@H](CCc2ccccc2)NS(=O)(=O)Cc2ccc([N+](=O)[O-])cc2)cc1` [Inhibitor 74] were, in that order, 93 nM, 0.39 µM, 710 nM and 51 nM.
The corresponding values for `N=C(N)c1ccc(CNC(=O)[C@H](CN)NC(=O)[C@@H](CO)NS(=O)(=O)Cc2ccccc2)cc1` [Inhibitor 8] are 390 nM, 15 µM, 650 nM and 50 nM.
Take `N=C(N)c1ccc(CNC(=O)[C@H](CCCCNC(=O)COCC(=O)NCCOCCOCCOCCOCCOCCOCCOCCN)NC(=O)[C@@H](CO)NS(=O)(=O)Cc2ccccc2)cc1` [Inhibitor 88]: the inhibitory constant (Ki) on human factor XIa worked out at 400 nM; on human factor XIIa, 21 µM; at thrombin it was 1200 nM; at plasma kallikrein (PK), 220 nM.
The corresponding values for `CC(C)(C)OC[C@@H](NS(=O)(=O)Cc1ccccc1)C(=O)N[C@@H](CN)C(=O)NCc1ccc(C(=N)N)cc1` [Inhibitor 33] are 190 nM, 4 µM, 9.4 nM and 22 nM.
The like results for `N=C(N)c1ccc(CNC(=O)[C@H](CO)NC(=O)[C@@H](CCc2ccccc2)NS(=O)(=O)Cc2ccccc2)cc1` [Inhibitor 67] were, in that order, 3000 nM, 0.63 µM, 550 nM and 19 nM.
The like results for `CC(C)(C)OC[C@@H](NS(=O)(=O)Cc1ccccc1)C(=O)N[C@@H](CC(=O)O)C(=O)NCc1ccc(C(=N)N)cc1` [Inhibitor 29] were, in that order, 390 nM, more than 1000 µM, 6000 nM and 910 nM.
For the compound `CC(C)(C)OC[C@@H](NS(=O)(=O)Cc1ccccc1)C(=O)N[C@@H](CCC(N)=O)C(=O)NCc1ccc(C(=N)N)cc1` [Inhibitor 31], the Ki amounted to 67 nM at human factor XIa, 6.3 µM on human factor XIIa, 21 nM on thrombin and 9.2 nM at plasma kallikrein (PK).
Turning to `CC(C)(C)OC[C@@H](NS(=O)(=O)Cc1ccccc1)C(=O)N[C@@H](CCCCNC(=O)OCc1ccccc1)C(=O)NCc1ccc(C(=N)N)cc1` [Inhibitor 36], the Ki stood at 480 nM at human factor XIa, 5.4 µM at human factor XIIa, 24 nM at thrombin and 9.4 nM on plasma kallikrein (PK).
The corresponding values for `N=C(N)c1ccc(CNC(=O)CNC(=O)[C@@H](CO)NS(=O)(=O)Cc2ccc(CN)cc2)cc1` [Inhibitor 25] are 6000 nM, 17 µM, 8000 nM and 6300 nM.

What is called Ki is the dissociation constant of the complex between target and ligand, obtained from inhibition or displacement.
